In the test the test system is BxPC-3 tumours. Nature of the test: In vivo BxPC-3 xenograft model, tumour growth. Set-up: species or system SCID mice. The settings on record: 100 μL I.P. injection, Gem HCl 120 mg/kg (scaled clinical dose); FIG. 7. On the procedure:
All animals in these studies were treated humanely and in accordance with licensed protocols under the Animals (Scientific Procedures) Act 1986 (UK). BxPc-3 cells were maintained in RPMI 1640 media supplemented with 100 U/mL penicillin, […] streptomycin, and 10% fetal bovine serum (FBS) in a humidified 5% CO2 atmosphere at 37° C. Cells (1×10^6) were re-suspended in Matrigel® and implanted subcutaneously into the rear dorsum of SCID (C.B-17/IcrHan@Hsd-Prkdcscid) mice. Tumours reached treatable size within 3 weeks. Tumour measurements were taken daily using callipers. Once the tumours had reached an average volume of 150 mm^3 animals were randomly assigned into treatment groups. Animals were anaesthetised using isoflurane with medical grade oxygen as the carrier gas. […] As control groups, animals were treated with a 100 μL I.P injection of either (i) gemcitabine hydrochloride (120 mg/kg) or (ii) gemcitabine hydrochloride (120 mg/kg) and PTX (15 mg/kg). Ultrasound was applied directly to the tumour immediately following injection at an ultrasound frequency of 1 MHz, an ultrasound power density of 3.5 W/cm^2 and a duty cycle of 30% for 3.5 min. Tumour volume was measured using callipers and calculated using the formula: V=L×W×H/2.

Drawing on patent publication US20220233713A1, “SONODYNAMIC THERAPY” (priority 2019, published 2022), this text covers tumour growth control for 1 compound.

Structures can show the parent of a compound that is named as a salt.

Take `Nc1ccn([C@@H]2O[C@H](CO)[C@@H](O)C2(F)F)c(=O)n1` [Gem HCl, gemcitabine hydrochloride]: the tumour growth control result was “significantly controls tumour growth progression”.
